The target in one experiment is T1, hMAO-B (Homo sapiens, UniProt P27338).
T1 construct: purchased Sigma-Aldrich
T1 sequence (P27338 1-520): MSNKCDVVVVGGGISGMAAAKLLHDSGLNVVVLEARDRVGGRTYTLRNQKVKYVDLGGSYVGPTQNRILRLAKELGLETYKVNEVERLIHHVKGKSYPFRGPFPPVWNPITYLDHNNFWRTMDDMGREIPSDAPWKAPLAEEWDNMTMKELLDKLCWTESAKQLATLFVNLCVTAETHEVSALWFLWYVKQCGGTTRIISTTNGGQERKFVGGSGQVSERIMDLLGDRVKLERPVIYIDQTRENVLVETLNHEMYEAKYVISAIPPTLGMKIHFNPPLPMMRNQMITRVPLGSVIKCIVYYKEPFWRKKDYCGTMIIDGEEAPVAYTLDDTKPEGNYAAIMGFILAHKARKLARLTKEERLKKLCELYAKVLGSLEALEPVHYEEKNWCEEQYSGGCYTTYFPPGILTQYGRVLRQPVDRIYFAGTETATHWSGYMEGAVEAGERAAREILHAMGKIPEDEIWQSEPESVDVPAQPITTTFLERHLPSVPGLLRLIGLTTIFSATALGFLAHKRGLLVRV
Put plainly: In vitro MAO-B enzyme inhibitory activity (recombinant human enzyme, benzylamine substrate). It counts as biochemical. As to conditions: for IC50: recombinant human MAO-B, mean ± SD of 3 independent experiments in triplicate; for SI: SI = IC50 (hMAO-A)/IC50 (hMAO-B) ratio. The method, then: (§1) The Novaroli et al. method was used with minor modifications to study the biological activities of MAO-A and MAO-B in vitro. A preincubation step was carried out at 37 °C for 10 min, in which 140 μL of 0.1 M potassium phosphate-buffered solution at pH 7.4, 8 μL of 0.75 mM kynuramine, and 2 μL of a dimethyl sulfoxide (DMSO) solution (i.e., final DMSO and inhibitor concentrations of 1% (v/v) and 0–1 μM, respectively). Diluted human recombinant enzyme (50 μL) was added to achieve the final protein concentration, and the mixture was incubated at 37 °C. After 20 min, the reaction was stopped with the addition of 75 μL of 2 M NaOH. […] Each measurement was repeated three times. DMSO was used as control. IC50 values were then calculated. […] The determination of IC50 values for inhibition of MAO enzymes involved the use of recombinant human MAO-A and MAO-B enzymes (purchased from Sigma-Aldrich). The initial rates of oxidation were measured in a 1 mL cuvette containing 50 mM of sodium phosphate (pH 7.4) at 25 °C, as described previously, except for the substrate concentrations and assay times. […] Meanwhile, the assessment of MAO-B activity employed 0.6 mM of benzylamine as the substrate, with absorbance changes measured at 250 nm for 10 min. Substrate addition initiated the reaction, and the reaction rates were quantified as alterations in absorbance per minute.

Another experiment concerns the target T2, hMAO-A (Homo sapiens, UniProt P21397).
T2 construct: purchased Sigma-Aldrich
T2 sequence (P21397 1-527): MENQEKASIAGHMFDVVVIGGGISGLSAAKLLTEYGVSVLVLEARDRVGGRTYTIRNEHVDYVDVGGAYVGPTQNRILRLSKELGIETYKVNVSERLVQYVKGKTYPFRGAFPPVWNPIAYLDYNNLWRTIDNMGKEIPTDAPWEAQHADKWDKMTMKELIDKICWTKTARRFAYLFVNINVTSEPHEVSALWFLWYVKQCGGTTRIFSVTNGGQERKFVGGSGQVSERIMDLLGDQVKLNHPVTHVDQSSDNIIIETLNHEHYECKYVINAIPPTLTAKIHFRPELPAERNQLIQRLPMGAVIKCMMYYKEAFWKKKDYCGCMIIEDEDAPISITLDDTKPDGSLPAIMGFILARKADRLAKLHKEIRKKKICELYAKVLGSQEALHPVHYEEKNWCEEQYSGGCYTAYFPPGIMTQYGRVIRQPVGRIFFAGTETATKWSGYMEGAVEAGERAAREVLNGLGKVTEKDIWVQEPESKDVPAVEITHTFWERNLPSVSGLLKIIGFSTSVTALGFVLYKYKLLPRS
Briefly: In vitro MAO-A enzyme inhibitory activity (recombinant human enzyme, kynuramine substrate). Format: biochemical. The protocol:
as §1

[1] abbreviates: recombinant human MAO-A, mean ± SD of 3 independent experiments in triplicate, read-out: IC50 hMAO-A.

As a reminder, the IC50 is the concentration at which inhibition is half-maximal.

“And” between values parts separate entries of the source, which are not always exact repeats. Identical values can stand only once. Like-named read-outs stand apart in the source and are kept apart here.

`CC1CCCC(C#Cc2ccccc2)(N2CCCC2)C1` (stereo not drawn) [4t, 1-(3-Methyl-1-(phenylethynyl)cyclohexyl)pyrrolidine]: the IC50 at hMAO-B was determined as 192 ± 2.41 nM. Turning to `C(#CC1(N2CCCC2c2cccnc2)CCCCC1)c1ccccc1` (stereo not drawn) [4aa, 3-(1-(1-(Phenylethynyl)cyclohexyl)pyrrolidin-2-yl)pyridine], on hMAO-B, the SI is 4.70 and the concentration for half-maximal inhibition (IC50) was 168 ± 2.12 nM. Also, at hMAO-A, the IC50 stood at 791.3 ± 6.72 nM. For the compound `Clc1ccc(C#CC2(N3CCCC3)CCCCC2)cc1` [4h, 1-(1-((4-chlorophenyl)ethynyl)cyclohexyl)pyrrolidine], on hMAO-B, the half-maximal inhibitory concentration (IC50) was 172 ± 2.1 nM. Take `C(#CC1(N2CCCC2c2cccnc2)CCCC1)c1ccccc1` (stereo not drawn) [4j, 3-(1-(1-(Phenylethynyl)cyclopentyl)pyrrolidin-2-yl)pyridine]: on hMAO-B, the SI is recorded as 5.23 and the concentration for half-maximal inhibition (IC50) came out at 165 ± 2.03 nM. Further, the IC50 on hMAO-A (setting [1]) came out at 861.5 ± 6.97 nM. For the compound `C(#CC1(NC2CCCCC2)CCCCC1)c1ccccc1` [4l, N-cyclohexyl-1-(phenylethynyl)cyclohexan-1-amine], the IC50 at hMAO-B was found to be 294 ± 3.06 nM. The same measure, in the same setting: under `COc1ccc(C#CC2(N3CCCCC3)CCCCC2)c(C)c1` [4x, 1-(1-((4-Methoxy-2-methylphenyl)ethynyl)cyclohexyl)piperidine] stands 267.4 ± 2.52 nM; under `CCCCCCC(C#Cc1ccccc1)(CCC)N1CCCC1` (stereo not drawn) [4r, 1-(4-(Phenylethynyl)decan-4-yl)pyrrolidine], 323.4 ± 3.21 nM; under `Clc1ccc(C#CC2(N3CCCCC3)CCCCC2)cc1` [4f, 1-(1-((4-chlorophenyl)ethynyl)cyclohexyl)piperidine], 175 ± 2.11 nM. The same measure, in the same setting: for `Cc1cccc(C#CC2(N3CCCCC3)CCCCC2)c1` [4w, 1-(1-(m-Tolylethynyl)cyclohexyl)piperidine] the value was 281.9 ± 2.72 nM; for `C(#CC1(N2CCOCC2)CCCCC1)c1ccccc1` [4d, 4-(1-(Phenylethynyl)cyclohexyl)morpholine], 174 ± 2.08 nM. As for `CC(C)(O)C#CC1(N2CCCC2c2cccnc2)CCCCC1` (stereo not drawn) [4k, 2-methyl-4-(1-(2-(pyridin-3-yl)pyrrolidin-1-yl)cyclohexyl)but-3-yn-2-ol], at hMAO-B, the SI was 5.24 and the IC50 turned out to be 152 ± 1.95 nM. Also, the IC50 at hMAO-A (setting [1]) is 797.1 ± 6.73 nM. `CCCN(CCC)C1(C#Cc2ccccc2)CCCCC1` [4e, 1-(phenylethynyl)-N, N-dipropylcyclohexan-1-amine]: the IC50 at hMAO-B was 286.1 ± 2.74 nM. Regarding `CCC(C#Cc1ccccc1)(CC)N1CCCC1` [4q, 1-(3-Ethyl-1-phenylpent-1-yn-3-yl)pyrrolidine], on hMAO-B, the IC50 was found to be 317 ± 3.24 nM.

As to `CC(C)(O)C#CC1(N2CCN(c3ccccc3)CC2)CCCCC1` [4ab, 2-Methyl-4-(1-(4-phenylpiperazin-1-yl)cyclohexyl)but-3-yn-2-ol], at hMAO-B, the SI was determined as 5.06 and the concentration for half-maximal inhibition (IC50) came to 167 ± 2.01 nM. In addition, on hMAO-A (setting [1]), the half-maximal inhibitory concentration (IC50) was 845.8 ± 6.83 nM. On to `COc1ccc(C#CC2(N3CCCCC3)CCCCC2)cc1` [4i, 1-(1-((4-methoxyphenyl)ethynyl)cyclohexyl)piperidine], for which the half-inhibitory concentration (IC50) at hMAO-B came out at 172 ± 2.1 nM. For the compound `C(#CC1(N2CCCC2)CCCCCC1)c1ccccc1` [4c, 1-(1-(phenylethynyl)cycloheptyl)pyrrolidine], the half-inhibitory concentration (IC50) at hMAO-B came to 183 ± 2.12 nM.

As to `CCC(C)(C#Cc1ccccc1)N1CCCC1` (stereo not drawn) [4o, 1-(3-Methyl-1-phenylpent-1-yn-3-yl)pyrrolidine], the IC50 at hMAO-B amounted to 312 ± 3.17 nM.

With `C(#CC1(NCc2ccccc2)CC2CCC1C2)c1ccccc1` (stereo not drawn) [4ae, N-Benzyl-2-(phenylethynyl)bicyclo[2.2.1]heptan-2-amine], the IC50 on hMAO-B was determined as 321.6 ± 2.94 nM. On to `C(#CC1(N2CCCC2)CCCC1)c1ccccc1` [4b, 1-(1-(phenylethynyl)cyclopentyl)pyrrolidine], for which the IC50 at hMAO-B is 182 ± 2.21 nM. With `Cc1ccc(C#CC2(N3CCCC3)CCCCC2)cc1` [4g, 1-(1-(p–tolylethynyl)cyclohexyl)pyrrolidine], the IC50 at hMAO-B came to 189 ± 2.24 nM. Consider `C(#CC1(N2CCCCC2)CC2CCC1C2)c1ccccc1` (stereo not drawn) [4u, 1-(2-(Phenylethynyl)bicyclo[2.2.1]heptan-2-yl)piperidine], for which, at hMAO-B, the IC50 is 346 nM and 277 nM. The same measure, in the same setting: for `CCCC(C)(C#Cc1ccccc1)N1CCCC1` (stereo not drawn) [4p, 1-(3-Methyl-1-phenylhex-1-yn-3-yl)pyrrolidine] the value was 203 ± 2.24 nM; for `CCOC(=O)C1CCN(C2(C#Cc3ccccc3)CCCCC2)CC1` [4z, Ethyl 1-(1-(phenylethynyl)cyclohexyl)piperidine-4-carboxylate], 213 ± 2.24 nM; for `C(#CC1(NCc2ccccc2)CCCCC1)c1ccccc1` [4ac, N-Benzyl-1-(phenylethynyl)cyclohexanamine], 278.4 ± 2.71 nM. Consider `COc1ccc(CNC2(C#Cc3ccccc3)CCCCC2)cc1` [4m, N-(4-methoxybenzyl)-1-(phenylethynyl)cyclohexanamine], for which, at hMAO-B, the SI was 4.86 and the IC50 was 165 ± 2.01 nM. Also, the 50% inhibitory concentration (IC50) at hMAO-A (setting [1]) came to 802.9 ± 7.03 nM. As for `Brc1ccccc1C#CC1(N2CCCCC2)CCCCC1` [4y, 1-(1-((2-Bromophenyl)ethynyl)cyclohexyl)piperidine], the IC50 at hMAO-B turned out to be 277.4 ± 2.71 nM. Still for that read-out and setting: under `C(#CC1(N2CCCCC2)CCCC1)c1ccccc1` [4n, 1-(1-(phenylethynyl)cyclopentyl)piperidine] stands 272.3 ± 2.54 nM.

`C(#CC1(N2CCCCC2)CCCCC1)c1ccccc1` [4a, 1-(1-(phenylethynyl)cyclohexyl)piperidine]: the 50% inhibitory concentration (IC50) on hMAO-B turned out to be 274.2 ± 2.68 nM.

With `CC1CCCCC1(C#Cc1ccccc1)N1CCCC1` (stereo not drawn) [4s, 1-(2-Methyl-1-(phenylethynyl)cyclohexyl)pyrrolidine], the IC50 at hMAO-B is 281.3 ± 2.75 nM. As for `CC(C)(O)C#CC1(NCc2ccc(F)cc2)CCCCC1` [4ad, 4-(1-((4-Fluorobenzyl)amino)cyclohexyl)-2-methylbut-3-yn-2-ol], at hMAO-B, the SI is reported as 4.74 and the IC50 was found to be 161 ± 1.97 nM. Further, the concentration for half-maximal inhibition (IC50) at hMAO-A (setting [1]) was 765.6 ± 6.42 nM.

These data come from PMC11174103 (Molecules, 2024).
